The values that follow come from US12421232B2, “Kinase inhibitor compounds and compositions and methods of use” (ICAHN SCHOOL OF MEDICINE AT MOUNT SINAI, priority 2018, dated 2025).

The target of one data set is T1, PDGFRB (Homo sapiens, UniProt P09619).
T1 construct: purchased DiscoverX
The experiment in a line: KINOMEscan Assay (DiscoverX). The format is binding. The note with it: read-out: % DMSO Ctrl.

The subject of data set [1] is human β-cells (dispersed human islet cells). The experiment in a line: Human β-cell proliferation assay (Ki67 and insulin staining). The format is cell-based.
For data set [2], the target named is T2, TYK2(JH1domain-catalytic) (Homo sapiens, UniProt P29597).
T2 construct: JH1domain; purchased DiscoverX
T2 sequence (P29597 897-1176 limits assumed): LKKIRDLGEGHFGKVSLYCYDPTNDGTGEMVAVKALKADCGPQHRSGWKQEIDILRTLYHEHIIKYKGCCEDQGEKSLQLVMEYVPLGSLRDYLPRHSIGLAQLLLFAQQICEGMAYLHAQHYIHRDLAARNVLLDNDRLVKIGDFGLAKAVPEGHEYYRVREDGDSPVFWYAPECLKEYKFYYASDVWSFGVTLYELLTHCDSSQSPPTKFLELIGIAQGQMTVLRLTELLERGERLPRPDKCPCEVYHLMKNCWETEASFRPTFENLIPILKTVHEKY
The experiment in a line: KINOMEscan Assay (DiscoverX). The format is binding. The note with it: read-out: % DMSO Ctrl.

The test system of data set [3] is NFAT2-GFP nuclear translocation in R7T1 rodent beta cells. The data set can be described thus: NFAT2 translocation assay. The format is cell-based. The following applies: 10 μM, 24 hours. From the text:
NFAT2T Translocation Assay. […] At least 1000 cells were counted.

The target of a further data set is T3, CSNK1E (Homo sapiens, UniProt P49674).
T3 construct: purchased DiscoverX
The data set can be described thus: KINOMEscan Assay (DiscoverX). The format is binding. The following applies: read-out: % DMSO Ctrl.

In a further data set the target is T4, DRAK2 (Homo sapiens, UniProt O94768).
T4 construct: purchased DiscoverX
The data set can be described thus: KINOMEscan Assay (DiscoverX). The following applies: read-out: % DMSO Ctrl. The format is binding.

The target of another data set is T5, CDK11 (Homo sapiens, UniProt Q9BWU1).
T5 construct: purchased DiscoverX
The data set can be described thus: KINOMEscan Assay (DiscoverX). The format is binding. The note with it: read-out: % DMSO Ctrl.

In another data set the target is T6, DAPK3 (Homo sapiens, UniProt O43293).
T6 construct: purchased DiscoverX
T6 sequence (O43293 whole entry): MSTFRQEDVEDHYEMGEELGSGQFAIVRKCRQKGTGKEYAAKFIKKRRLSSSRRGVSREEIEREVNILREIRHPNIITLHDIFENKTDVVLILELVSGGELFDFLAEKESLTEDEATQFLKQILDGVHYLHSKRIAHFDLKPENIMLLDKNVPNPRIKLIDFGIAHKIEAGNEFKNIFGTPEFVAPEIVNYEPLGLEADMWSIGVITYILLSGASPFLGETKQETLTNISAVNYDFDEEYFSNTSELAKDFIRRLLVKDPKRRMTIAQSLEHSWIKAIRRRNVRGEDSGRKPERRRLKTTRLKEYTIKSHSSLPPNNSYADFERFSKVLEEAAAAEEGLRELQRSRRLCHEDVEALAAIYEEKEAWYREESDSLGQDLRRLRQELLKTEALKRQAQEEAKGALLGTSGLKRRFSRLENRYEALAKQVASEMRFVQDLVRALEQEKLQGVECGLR
The data set can be described thus: KINOMEscan Assay (DiscoverX). The format is binding. The note with it: read-out: % DMSO Ctrl.

The target of the next data set is T7, CSNK2A2 (Homo sapiens, UniProt P19784).
T7 construct: purchased DiscoverX
The experiment in a line: KINOMEscan Assay (DiscoverX). The format is binding. The note with it: read-out: % DMSO Ctrl.

For the next data set, the target named is T8, CLK1 (Homo sapiens, UniProt P49759).
T8 construct: purchased DiscoverX
The experiment in a line: KINOMEscan Assay (DiscoverX). The format is binding. The note with it: read-out: % DMSO Ctrl.

Another data set concerns the target T9, IRAK1 (Homo sapiens, UniProt P51617).
T9 construct: purchased DiscoverX
The experiment in a line: KINOMEscan Assay (DiscoverX). The format is binding. The following applies: read-out: % DMSO Ctrl.

The target in a further data set is T10, CLK2 (Homo sapiens, UniProt P49760).
T10 construct: purchased DiscoverX
The experiment in a line: KINOMEscan Assay (DiscoverX). The format is binding. The following applies: read-out: % DMSO Ctrl.

The next data set has as its target T11, CIT (Homo sapiens, UniProt O14578).
T11 construct: purchased DiscoverX
The data set can be described thus: KINOMEscan Assay (DiscoverX). The format is binding. The note with it: read-out: % DMSO Ctrl.

In data set [4] the target is T12, DYRK1A (Homo sapiens, UniProt Q13627). The data set can be described thus: KINOMEscan Assay (DiscoverX). The format is binding. Set-up: purchased Life Technologies.
Another data set addresses T13, CDKL5 (Homo sapiens, UniProt O76039).
T13 construct: purchased DiscoverX
The experiment in a line: KINOMEscan Assay (DiscoverX). The format is binding. The following applies: read-out: % DMSO Ctrl.

Another data set concerns the target T14, VPS34 (Homo sapiens, UniProt Q8NEB9).
T14 construct: purchased DiscoverX
The experiment in a line: KINOMEscan Assay (DiscoverX). The format is binding. The note with it: read-out: % DMSO Ctrl.

The target of the next data set is T15, HIPK1 (Homo sapiens, UniProt Q86Z02).
T15 construct: purchased DiscoverX
The data set can be described thus: KINOMEscan Assay (DiscoverX). The format is binding. The note with it: read-out: % DMSO Ctrl.

For the next data set, the target named is T16, CSNK1D (Homo sapiens, UniProt P48730).
T16 construct: purchased DiscoverX
The data set can be described thus: KINOMEscan Assay (DiscoverX). The format is binding. The following applies: read-out: % DMSO Ctrl.

Another data set deals with T17, CLK4 (Homo sapiens, UniProt Q9HAZ1).
T17 construct: purchased DiscoverX
T17 sequence (Q9HAZ1 whole entry): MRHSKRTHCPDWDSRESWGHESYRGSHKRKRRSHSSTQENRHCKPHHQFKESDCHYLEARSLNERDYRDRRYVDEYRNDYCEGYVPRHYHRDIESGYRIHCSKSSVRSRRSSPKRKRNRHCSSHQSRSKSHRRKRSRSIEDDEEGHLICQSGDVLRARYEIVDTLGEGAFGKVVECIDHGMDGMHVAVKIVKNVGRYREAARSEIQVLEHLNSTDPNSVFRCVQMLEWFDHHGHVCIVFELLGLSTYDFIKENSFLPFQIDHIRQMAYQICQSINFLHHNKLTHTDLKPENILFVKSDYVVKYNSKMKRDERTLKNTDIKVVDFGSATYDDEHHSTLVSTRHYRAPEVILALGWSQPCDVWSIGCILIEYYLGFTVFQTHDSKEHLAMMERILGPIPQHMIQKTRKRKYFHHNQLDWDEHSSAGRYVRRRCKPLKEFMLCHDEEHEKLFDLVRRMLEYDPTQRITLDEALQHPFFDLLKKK
The experiment in a line: KINOMEscan Assay (DiscoverX). The format is binding. The following applies: read-out: % DMSO Ctrl.

The target of another data set is T18, DAPK2 (Homo sapiens, UniProt Q9UIK4).
T18 construct: purchased DiscoverX
The data set can be described thus: KINOMEscan Assay (DiscoverX). The format is binding. The following applies: read-out: % DMSO Ctrl.

Another data set concerns the target T19, DAPK1 (Homo sapiens, UniProt P53355).
T19 construct: purchased DiscoverX
The data set can be described thus: KINOMEscan Assay (DiscoverX). The format is binding. The following applies: read-out: % DMSO Ctrl.

For the next data set, the target named is T20, TGFBR2 (Homo sapiens, UniProt P37173).
T20 construct: purchased DiscoverX
The experiment in a line: KINOMEscan Assay (DiscoverX). The format is binding. The following applies: read-out: % DMSO Ctrl.

The next data set addresses T21, CDK8 (Homo sapiens, UniProt P49336).
T21 construct: purchased DiscoverX
The data set can be described thus: KINOMEscan Assay (DiscoverX). The format is binding. The note with it: read-out: % DMSO Ctrl.

Data set [5] concerns the target T12, DYRK1A. The experiment in a line: FRET-based LanthaScreen Eu Kinase Binding Assay (Life Technologies). A general note: Time-resolved FRET reads energy transfer from a long-lived donor to a nearby acceptor.
In data set [6] the target is T22, Serotonin (5-Hydroxytryptamine) 5-HT2C (Homo sapiens, UniProt P28335).
T22 construct: purchased Eurofins CEREP
The data set can be described thus: Eurofins CEREP Screen. The format is binding.

The target of data set [7] is T23, Serotonin (5-Hydroxytryptamine) 5-HT6 (Homo sapiens, UniProt P50406).
T23 construct: Eurofins CEREP (contract screen)
The experiment in a line: Eurofins CEREP Screen. The format is binding.

Another data set deals with T24, Adrenergic α2C (Homo sapiens, UniProt P18825).
T24 construct: purchased Eurofins CEREP
The data set can be described thus: Eurofins CEREP Screen. The format is binding.

Data set [8] addresses T25, Serotonin (5-Hydroxytryptamine) 5-HT7 (Homo sapiens, UniProt P34969).
T25 construct: Eurofins CEREP (contract screen)
The experiment in a line: Eurofins CEREP Screen. The format is binding.

The subject of another data set is 468 kinases. The data set can be described thus: KINOMEscan profile, whole panel. The format is binding. The note with it: 10 μM.
For a further data set, the target named is T26, Adrenergic α2B (Homo sapiens, UniProt P18089).
T26 construct: purchased Eurofins CEREP
The experiment in a line: Eurofins CEREP Screen. The format is binding.

The target of data set [9] is T27, Serotonin (5-Hydroxytryptamine) 5-HT2A (Homo sapiens, UniProt P28223).
T27 construct: purchased Eurofins CEREP
The data set can be described thus: Eurofins CEREP Screen. The format is binding.

The target in the next data set is Adrenergic α2A (Homo sapiens, UniProt P08913). The experiment in a line: biochemical.
The target in data set [10] is T28, Transporter, Norepinephrine (NET) (Homo sapiens, UniProt P23975).
T28 construct: Eurofins CEREP (contract screen)
The experiment in a line: Eurofins CEREP Screen. The format is binding.

Where two headings read alike, the source gives them in different places. Marks after values point to notes of the source that are not given here.

What is called IC50 is the concentration that gives 50% inhibition. Low values mean higher potency, high ones lower potency. In general, inhibition refers to how much of the control response was suppressed. Read a low inhibition as a response near the control.

T1 sequence (P09619 33-1106): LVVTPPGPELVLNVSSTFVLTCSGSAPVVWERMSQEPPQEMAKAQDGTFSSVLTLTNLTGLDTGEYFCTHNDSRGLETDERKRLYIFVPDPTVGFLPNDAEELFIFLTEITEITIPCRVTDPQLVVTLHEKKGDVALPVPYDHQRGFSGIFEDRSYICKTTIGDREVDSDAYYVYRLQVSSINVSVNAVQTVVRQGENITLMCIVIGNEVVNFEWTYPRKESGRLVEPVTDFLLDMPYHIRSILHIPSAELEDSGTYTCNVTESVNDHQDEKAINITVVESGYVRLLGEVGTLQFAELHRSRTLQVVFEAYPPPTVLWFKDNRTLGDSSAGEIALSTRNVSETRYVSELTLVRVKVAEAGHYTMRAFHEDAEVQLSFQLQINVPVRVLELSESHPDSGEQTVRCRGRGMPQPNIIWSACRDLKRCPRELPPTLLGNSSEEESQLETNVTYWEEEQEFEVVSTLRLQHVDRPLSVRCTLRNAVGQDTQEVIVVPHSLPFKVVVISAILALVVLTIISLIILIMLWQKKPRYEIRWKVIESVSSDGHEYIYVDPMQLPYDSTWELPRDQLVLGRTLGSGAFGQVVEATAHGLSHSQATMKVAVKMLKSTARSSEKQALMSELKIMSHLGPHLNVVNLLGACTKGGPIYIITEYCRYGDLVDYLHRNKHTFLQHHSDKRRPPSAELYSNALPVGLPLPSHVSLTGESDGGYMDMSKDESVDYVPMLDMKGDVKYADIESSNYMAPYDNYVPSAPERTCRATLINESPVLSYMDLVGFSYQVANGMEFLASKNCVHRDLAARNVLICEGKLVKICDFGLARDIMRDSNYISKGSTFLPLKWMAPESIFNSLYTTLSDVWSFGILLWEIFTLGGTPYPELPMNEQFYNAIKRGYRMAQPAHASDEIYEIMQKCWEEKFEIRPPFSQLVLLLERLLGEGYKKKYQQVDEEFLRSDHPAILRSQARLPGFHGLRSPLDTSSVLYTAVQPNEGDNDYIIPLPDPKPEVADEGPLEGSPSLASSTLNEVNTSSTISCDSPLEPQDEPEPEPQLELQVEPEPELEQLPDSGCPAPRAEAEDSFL
T9 sequence (P51617 whole entry): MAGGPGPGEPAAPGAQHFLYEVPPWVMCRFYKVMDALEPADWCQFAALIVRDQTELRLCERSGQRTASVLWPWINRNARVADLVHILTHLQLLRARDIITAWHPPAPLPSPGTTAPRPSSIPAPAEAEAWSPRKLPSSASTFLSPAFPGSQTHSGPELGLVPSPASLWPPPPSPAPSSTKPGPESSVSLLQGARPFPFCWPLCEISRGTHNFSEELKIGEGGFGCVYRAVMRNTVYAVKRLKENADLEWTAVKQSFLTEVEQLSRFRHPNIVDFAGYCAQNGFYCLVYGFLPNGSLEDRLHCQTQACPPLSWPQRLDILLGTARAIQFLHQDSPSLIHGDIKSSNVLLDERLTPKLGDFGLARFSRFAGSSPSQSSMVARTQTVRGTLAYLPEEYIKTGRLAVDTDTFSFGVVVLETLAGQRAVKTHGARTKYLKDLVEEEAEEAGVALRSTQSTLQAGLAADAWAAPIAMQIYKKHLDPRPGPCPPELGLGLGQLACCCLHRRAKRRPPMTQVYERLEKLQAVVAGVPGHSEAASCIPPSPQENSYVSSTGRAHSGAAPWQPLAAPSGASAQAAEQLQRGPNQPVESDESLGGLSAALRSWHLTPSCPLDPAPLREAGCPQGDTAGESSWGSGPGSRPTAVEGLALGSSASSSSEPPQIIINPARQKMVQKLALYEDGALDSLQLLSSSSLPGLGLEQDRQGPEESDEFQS
T14 sequence (Q8NEB9 whole entry): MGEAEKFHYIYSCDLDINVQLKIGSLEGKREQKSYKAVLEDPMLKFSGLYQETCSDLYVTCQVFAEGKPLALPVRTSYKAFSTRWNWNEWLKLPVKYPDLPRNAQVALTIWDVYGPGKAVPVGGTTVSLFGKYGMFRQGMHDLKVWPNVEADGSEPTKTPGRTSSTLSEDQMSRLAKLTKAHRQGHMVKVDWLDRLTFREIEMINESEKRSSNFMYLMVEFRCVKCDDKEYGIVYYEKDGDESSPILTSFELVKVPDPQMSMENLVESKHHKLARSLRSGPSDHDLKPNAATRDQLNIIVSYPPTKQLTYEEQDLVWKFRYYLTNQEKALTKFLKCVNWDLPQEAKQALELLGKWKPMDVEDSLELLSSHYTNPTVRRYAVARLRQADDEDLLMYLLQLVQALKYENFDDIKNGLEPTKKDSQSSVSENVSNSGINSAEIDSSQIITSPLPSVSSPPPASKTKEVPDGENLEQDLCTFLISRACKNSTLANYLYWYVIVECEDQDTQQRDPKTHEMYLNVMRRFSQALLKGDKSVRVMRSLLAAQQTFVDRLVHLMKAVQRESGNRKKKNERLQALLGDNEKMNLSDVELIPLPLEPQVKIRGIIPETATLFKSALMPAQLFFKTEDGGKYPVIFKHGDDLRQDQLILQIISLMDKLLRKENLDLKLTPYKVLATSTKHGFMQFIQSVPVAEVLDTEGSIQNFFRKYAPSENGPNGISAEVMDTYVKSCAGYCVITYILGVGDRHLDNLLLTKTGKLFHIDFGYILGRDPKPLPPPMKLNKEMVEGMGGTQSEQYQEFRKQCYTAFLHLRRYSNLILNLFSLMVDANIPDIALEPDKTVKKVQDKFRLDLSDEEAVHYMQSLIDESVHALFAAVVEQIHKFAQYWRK
T19 sequence (P53355 whole entry): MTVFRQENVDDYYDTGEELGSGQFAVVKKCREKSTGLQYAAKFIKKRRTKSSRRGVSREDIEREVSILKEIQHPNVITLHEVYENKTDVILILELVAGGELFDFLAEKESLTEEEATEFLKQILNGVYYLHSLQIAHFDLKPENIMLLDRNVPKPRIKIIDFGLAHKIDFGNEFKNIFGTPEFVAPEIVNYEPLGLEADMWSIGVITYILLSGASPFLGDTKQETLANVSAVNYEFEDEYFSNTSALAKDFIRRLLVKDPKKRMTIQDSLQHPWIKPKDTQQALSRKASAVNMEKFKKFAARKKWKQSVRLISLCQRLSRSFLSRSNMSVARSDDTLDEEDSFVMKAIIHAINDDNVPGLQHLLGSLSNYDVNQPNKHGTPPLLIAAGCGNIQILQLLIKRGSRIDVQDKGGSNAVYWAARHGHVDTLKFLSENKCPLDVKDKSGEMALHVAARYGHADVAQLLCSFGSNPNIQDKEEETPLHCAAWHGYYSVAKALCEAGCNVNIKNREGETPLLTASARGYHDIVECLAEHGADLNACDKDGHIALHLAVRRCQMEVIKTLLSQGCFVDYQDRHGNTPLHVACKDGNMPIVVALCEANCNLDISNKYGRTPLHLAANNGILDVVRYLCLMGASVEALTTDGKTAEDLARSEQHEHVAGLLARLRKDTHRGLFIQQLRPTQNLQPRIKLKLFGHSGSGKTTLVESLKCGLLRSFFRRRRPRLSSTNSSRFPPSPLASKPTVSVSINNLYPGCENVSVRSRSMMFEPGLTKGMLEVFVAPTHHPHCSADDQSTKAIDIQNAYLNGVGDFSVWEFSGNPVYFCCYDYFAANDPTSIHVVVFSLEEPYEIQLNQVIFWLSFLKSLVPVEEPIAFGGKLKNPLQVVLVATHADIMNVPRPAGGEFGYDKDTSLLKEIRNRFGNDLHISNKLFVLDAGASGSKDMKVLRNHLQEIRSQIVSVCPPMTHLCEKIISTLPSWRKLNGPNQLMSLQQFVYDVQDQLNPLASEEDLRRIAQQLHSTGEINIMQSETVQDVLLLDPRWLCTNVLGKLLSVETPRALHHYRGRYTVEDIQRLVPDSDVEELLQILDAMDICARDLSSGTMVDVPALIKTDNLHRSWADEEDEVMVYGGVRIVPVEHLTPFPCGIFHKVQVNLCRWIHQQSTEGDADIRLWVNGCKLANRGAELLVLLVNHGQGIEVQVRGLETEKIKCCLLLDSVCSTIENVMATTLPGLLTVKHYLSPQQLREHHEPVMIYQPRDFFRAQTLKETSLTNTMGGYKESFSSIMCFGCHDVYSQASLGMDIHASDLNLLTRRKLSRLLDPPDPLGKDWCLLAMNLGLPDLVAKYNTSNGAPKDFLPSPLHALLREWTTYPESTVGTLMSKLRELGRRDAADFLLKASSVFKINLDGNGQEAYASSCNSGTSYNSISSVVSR

Take `COc1ccc2c(c1)[nH]c1c(C)nc(CO)cc12` [Compound 2-8, (1-Methyl-7-methoxy-9H-pyrido[3,4-b]indol-3-yl)methanol]: the remaining binding at 10 µM on PDGFRB (PDGFRB, 10 μM) came to 97%; in data set [2] (TYK2(JH1domain-catalytic), 10 μM) it was 64%. The beta cell toxicity result in data set [1] was “did not cause toxicity”. Moreover, the “NFAT2 translocation to nucleus” value in data set [3] is “drove NFAT2 translocation to nucleus”.

As to `COc1ccc2c3ccnc(C)c3n(CCCc3noc(N)n3)c2c1` [Compound 20-13, 3-(3-(7-Methoxy-1-methyl-β-carbolin-9-yl)propyl)-5-amino-1,2,4-oxadiazole], the remaining binding at 10 µM turned out to be 61% at CSNK1E; 100% at DRAK2; 81% at CDK11; 91% at DAPK3; 50% on CSNK2A2; 4.1% on CLK1. The remaining binding at 10 µM turned out to be 58% at IRAK1; 100% at PDGFRB; 4.2% at CLK2; 66% on CIT; 21% at CDKL5; 42% on VPS34. In addition, the remaining binding at 10 µM on HIPK1 was 9.5%; at CSNK1D, 65%; at CLK4, 1.7%; in [2] it was 17%; at DAPK2, 92%; on DAPK1 it was 91%. Also, the remaining binding at 10 µM at TGFBR2 and at CDK8 was 100% each time. In addition, the “human β-cell proliferation (in words)” value in [1] (5 μM, versus harmine at 10 μM) is “induced Human 3-Cell proliferation to a greater extent that harmine”. On DYRK1A [4] (DYRK1A, 10 μM), the “% DMSO Ctrl” value is reported as 0 ^b % DMSO Ctrl.

For the molecule `C#CCn1c2cc(OC)ccc2c2ccnc(C)c21` [Compound 20-23a, 3-(7-Methoxy-1-methyl-β-carbolin-9-yl)-propan-1-yne], the remaining binding at 10 µM on CSNK1E turned out to be 26%; on DRAK2 it was 100%; on CDK11, 40%; on DAPK3, 75%; at CSNK2A2 it was 54%; on CLK1, 1.9%. In addition, the remaining binding at 10 µM was found to be 42% at IRAK1 (IRAK1, 10 μM); 77% at PDGFRB; 0.9% at CLK2; 26% at CIT; 0% on DYRK1A [4] (read-out: % DMSO Ctrl); 22% at CDKL5. The remaining binding at 10 µM at VPS34 (VPS34, 10 μM) came out at 89%; on HIPK1 it was 12%; at CSNK1D, 38%; at CLK4 it was 1.1%; in [2] it was 91%; at DAPK2, 70%. In addition, the remaining binding at 10 µM on DAPK1 was found to be 89%; on TGFBR2, 98%; on CDK8, 26%. On DYRK1A [5], this molecule yielded a concentration for half-maximal inhibition (IC50) of 8 nM.

Consider `COc1ccc2c(c1)[nH]c1c(C)nccc12` [Harmine, reference compound], for which the inhibition at 10 µM was found to be 75% in data set [6]; 37% in [7]; 45% at Adrenergic α2C; 30% in [8]; 32% against Adrenergic α2B; 23% in data set [9]. In addition, the inhibition at 10 µM against Adrenergic α2A was determined as 59%; in [10] it was 86%. At IRAK1, the remaining binding at 10 µM worked out at 17%. Also, the “kinases inhibited (<20% activity remaining) in addition to DYRK1A” value with 468 kinases was 16.
